Columns and labels:
Assay in all cases: relative viability (nuclei count vs DMSO), 5 days (fraction); higher = more cells survive
Dabrafenib + OSI-027 = compound: CC(C)(C)c1nc(-c2cccc(NS(=O)(=O)c3c(F)cccc3F)c2F)c(-c2ccnc(N)n2)s1 [Dabrafenib] + COc1cccc2cc(-c3nc([C@H]4CC[C@H](C(=O)O)CC4)n4ncnc(N)c34)[nH]c12 [OSI-027] (partner 0.5 µM)
Outline: (§1)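 Cells from lung cancer lines were seeded into 1536-well plates and, one day later, dosed by pin tool. Treatments were either a single drug or a fixed dose of an anchor drug with five library-drug doses (not always all listed) in √10 steps. After 5 days, nuclei were stained in a one-step fixation (final 0.05% Triton X-100, 1% formaldehyde, 1 ug/ml Hoechst) and counted on 4× images, and relative viability is the treated-to-vehicle nuclei ratio, as the median of duplicate plates.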

Dabrafenib + Crizotinib = compound: CC(C)(C)c1nc(-c2cccc(NS(=O)(=O)c3c(F)cccc3F)c2F)c(-c2ccnc(N)n2)s1 [Dabrafenib] + C[C@@H](Oc1cc(-c2cnn(C3CCNCC3)c2)cnc1N)c1c(Cl)ccc(F)c1Cl [Crizotinib] (partner 1 µM)
Outline: as §1

Dabrafenib + Decitabine = compound: CC(C)(C)c1nc(-c2cccc(NS(=O)(=O)c3c(F)cccc3F)c2F)c(-c2ccnc(N)n2)s1 [Dabrafenib] + Nc1ncn([C@H]2C[C@H](O)[C@@H](CO)O2)c(=O)n1 [Decitabine] (partner 2 µM)
Outline: as §1

VX-702 + OSI-027 = compound: NC(=O)c1ccc(N(C(N)=O)c2c(F)cccc2F)nc1-c1ccc(F)cc1F [VX-702] + COc1cccc2cc(-c3nc([C@H]4CC[C@H](C(=O)O)CC4)n4ncnc(N)c34)[nH]c12 [OSI-027] (partner 0.5 µM)
Outline: as §1

| Cell Line | relative viability (Dabrafenib + OSI-027; first compound 0.003 µM) | relative viability (Dabrafenib + OSI-027; first compound 0.009487 µM) | relative viability (Dabrafenib + OSI-027; first compound 0.03 µM) | relative viability (Dabrafenib + OSI-027; first compound 0.09487 µM) | relative viability (Dabrafenib + OSI-027; first compound 0.3 µM) | relative viability (Dabrafenib + Crizotinib; first compound 0.003 µM) | relative viability (Dabrafenib + Crizotinib; first compound 0.009487 µM) | relative viability (Dabrafenib + Crizotinib; first compound 0.03 µM) | relative viability (Dabrafenib + Crizotinib; first compound 0.09487 µM) | relative viability (Dabrafenib + Crizotinib; first compound 0.3 µM) | relative viability (Dabrafenib + Decitabine; first compound 0.003 µM) | relative viability (Dabrafenib + Decitabine; first compound 0.009487 µM) | relative viability (Dabrafenib + Decitabine; first compound 0.03 µM) | relative viability (Dabrafenib + Decitabine; first compound 0.09487 µM) | relative viability (Dabrafenib + Decitabine; first compound 0.3 µM) | relative viability (VX-702 + OSI-027; first compound 0.02 µM) | relative viability (VX-702 + OSI-027; first compound 0.2 µM) | relative viability (VX-702 + OSI-027; first compound 0.6325 µM) | relative viability (VX-702 + OSI-027; first compound 2 µM) |
| --- | --- | --- | --- | --- | --- | --- | --- | --- | --- | --- | --- | --- | --- | --- | --- | --- | --- | --- | --- |
| SW 1573 | 0.463 | 0.61 | 0.525 | 0.623 | 0.548 | 0.802 | 0.94 | 0.697 | 0.755 | 0.782 | 0.448 | 0.545 | 0.488 | 0.589 | 0.357 | 0.715 | 0.636 | 0.504 | 0.482 |
| LXF-289 | 0.337 | 0.819 | 0.751 | 0.783 | 0.856 | 0.802 | 0.833 | 0.892 | 0.804 | 0.883 | 0.353 | 0.353 | 0.372 | 0.397 | 0.351 | 0.786 | 0.784 | 0.772 | 0.683 |
| NCI-H2023 | 0.325 | 0.455 | 0.385 | 0.355 | 0.395 | 0.745 | 0.651 | 0.651 | 0.876 | 0.802 | 0.236 | 0.222 | 0.196 | 0.214 | 0.135 | 0.349 | 0.445 | 0.441 | 0.416 |
| HARA | 0.262 | 0.618 |  | 0.327 | 0.864 | 0.975 | 1.04 | 1.01 | 0.855 | 1.11 |  | 0.537 | 0.595 | 0.539 | 0.499 | 0.458 | 0.412 | 0.446 | 0.479 |
| SK-LU-1 |  | 0.366 | 0.217 | 0.285 | 0.227 | 0.742 | 0.989 | 0.769 | 0.778 | 0.891 |  | 0.657 | 0.569 | 0.571 | 0.484 | 0.386 | 0.341 | 0.339 | 0.354 |
| LCLC-97TM1 | 0.308 | 0.535 | 0.683 | 0.237 | 0.237 |  | 0.325 | 0.406 |  | 0.287 |  | 0.19 | 0.184 | 0.197 | 0.194 | 0.424 | 0.595 | 0.37 | 0.404 |

From the supplement of paper PMC10307832
